Here are results for 16 compounds from US5244883A, “Nonapeptide bombesin antagonists” (The Administrators of the Tulane Educational Fund, priority 1990, dated 1993).

In general, Kd refers to the free concentration of one partner at which half of the binding sites on the other are occupied at equilibrium, for simple one-to-one binding. In general, IC50 refers to the point on the concentration scale where inhibition reaches its midpoint.

Where a SMILES comes first, the peptide text is derived from it. [ ]: non-standard residue; d: D form. The star is where a group is joined. His(τ-Bzl) = N[C@@H](Cc1cn(Cc2ccccc2)cn1)C(=O)O; X2 = CC(C)C[C@@H](CN[C@@H](CC(C)C)C(N)=O)N*; dTpi = O=C(O)[C@H]1Cc2c([nH]c3ccccc23)CN1

This experiment addresses T1, GRP receptors on Swiss 3T3 cells (Mus musculus, UniProt P21729).
T1 construct: conducted in 24-well tissue culture plates (GIBCO) using Swiss 3T3 cells; endogenous in cells; host or cells: Murine Swiss 3T3 fibroblasts (intact confluent, quiescent cells)
Kind of experiment: Receptor binding assay: displacement of 125I-GRP(14-27) on Swiss 3T3 cells. Particulars: for Ka: association constant, N.D.=NO DISPLACEMENT; for Ka / Kd: 0.2 nM 125I-GRP(14-27), Swiss 3T3 cells, 37° C. 30 min; for IC50: calculated by Cheng and Prussoff equation IC50=Kc(1+L/Kh), 0.2 nM radioligand. Details: species or system Murine. The method, then:
(A) Receptor Binding Assay
Binding of ^125 I-GRP(14-27) and displacement by bombesin antagonists were conducted in 24-well tissue culture plates (GIBCO) using Swiss 3T3 cells. Murine Swiss 3T3 fibroblasts were maintained by weekly passage in DMEM containing 10% FCBS and antimycotics. Cultures were incubated in 5% CO2 in air at 37° C. The wells were seeded with 10^5 cells/well (viability >95%), grown to confluence and quiescency. The binding procedure was conducted 7 days after seeding. The cells were washed 2 times with 0.5 ml of binding buffer (Dulbecco's modified Eagle's medium containing […] (pH 7.4), 0.2% BSA and 100 mcg/ml bacitracin). The cells were then incubated with 0.2 nM ^125 I-GRP (14-27) in the presence or absence of different concentrations of antagonists (6×10^-11 -6×10^-6 M, total volume 0.4 ml).
According to Zachary and Rozengurt (1985) and Layton et al., (1988), binding of ^125 I-GRP at 37° C. reached a maximum value at 30 min and decreased afterwards; so, the cells were incubated at 37° C. for 30 min. After that, the cells were washed 2 times with ice-cold (4° C.) binding buffer and 2 times with the ice-cold phosphate-buffered saline (PBS,mM): NaCl 138, KCl 2.8, Na2 HPO4 8, KH2 PO4 1.45, CaCl2 0.91, MgCl2 0.49. Washed cultures were extracted in 0.5 ml of 0.5M NaOH and transferred to tubes for counting. The wells were washed once with 0.5 ml distilled water (sterile), and the washing were added to the appropriate tubes. Then the radio-activity of the samples was counted in an automatic gamma counter (Micromedic System, Inc., Huntsville, Ala.).
The Ligand - PC computerized curve fitting program of Munson and Rodbard was used to determine the types of receptor binding, dissociation constant (Kd), association constant (Ka), the maximal binding capacity of receptors (Bmax) and half-maximal inhibition (IC50).
IC50 values represent concentrations of antagonists causing half-maximal inhibition of 0.2 nM GRP(14-27) stimulated growth. Dissociation constant and maximal binding capacity of ^125 I-GRP (14-27) in our experiments were 1.32 nm and 0.769 pm/mg protein, respectively, which were similar to those reported for ^125 I-GRP and ^125 I-Tyr^4 -bombesin. Binding characteristics of GRP receptors on 3T3 cells in these experiments agree well with values obtained for bombesin binding to pancreatic acinar (Jensen et al., 1978) and pituitary cells (Westendorf and Schonbrunn, 1983).
IC50 is the concentration of unlabelled ligand that displaced half the specific radioligand binding. It is calculated according to the equation of Cheng and Prussoff (1973): IC50 =Kc (1+L/Kh), where Kc and Kh are the dissociation constants of unlabelled (cold) and labelled (hot) ligand respectively, and L is the concentration of radioligand used.

T1 sequence (P21729 whole entry): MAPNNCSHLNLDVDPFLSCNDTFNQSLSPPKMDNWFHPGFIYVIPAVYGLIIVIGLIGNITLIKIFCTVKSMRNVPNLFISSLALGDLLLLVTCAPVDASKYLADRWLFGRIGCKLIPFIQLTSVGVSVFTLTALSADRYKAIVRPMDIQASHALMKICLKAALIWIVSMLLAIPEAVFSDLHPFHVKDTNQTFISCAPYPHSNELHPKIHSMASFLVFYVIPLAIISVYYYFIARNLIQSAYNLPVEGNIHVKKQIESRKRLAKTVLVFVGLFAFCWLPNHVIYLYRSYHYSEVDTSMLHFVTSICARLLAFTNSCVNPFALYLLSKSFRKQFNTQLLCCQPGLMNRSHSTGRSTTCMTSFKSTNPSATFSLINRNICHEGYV

As for `CSCC[C@H](NC(=O)[C@H](CC(C)C)NC(=O)[C@H](Cc1c[nH]cn1)NC(=O)CNC(=O)[C@@H](NC(=O)[C@H](C)NC(=O)[C@H](Cc1c[nH]c2ccccc12)NC(=O)[C@H](Cc1c[nH]cn1)NC(=O)[C@H](CC(N)=O)NC(=O)CNC(=O)[C@H](CCCNC(=N)N)NC(=O)[C@@H]1CCCN1C(=O)[C@H](Cc1ccc(O)cc1)NC(=O)[C@@H](N)CCSC)C(C)C)C(N)=O` [125I-GRP (14-27), reference compound], the “maximal binding capacity of 125I-GRP(14-27)” value (radioligand on Swiss 3T3 cells) worked out at 0.769 pm/mg protein. For `CSCC[C@H](NC(=O)[C@H](CC(C)C)NC(=O)[C@H](Cc1c[nH]cn1)NC(=O)CNC(=O)[C@@H](NC(=O)[C@H](C)NC(=O)[C@H](Cc1c[nH]c2ccccc12)NC(=O)[C@H](Cc1c[nH]cn1)NC(=O)[C@H](CC(N)=O)NC(=O)CNC(=O)[C@H](CCCNC(=N)N)NC(=O)[C@@H]1CCCN1C(=O)[C@H](Cc1ccc(O)cc1)NC(=O)[C@@H](N)CCSC)C(C)C)C(N)=O` [GRP(14-27), reference compound], the Ka came out at 0.758 ± 0.23 nM⁻¹.

In the case of `CC(C)C[C@@H](CN[C@@H](CC(C)C)C(N)=O)NC(=O)[C@H](Cc1c[nH]cn1)NC(=O)CNC(=O)[C@@H](NC(=O)[C@H](C)NC(=O)[C@H](Cc1c[nH]c2ccccc12)NC(=O)[C@H](CCC(N)=O)NC(=O)[C@H](N)Cc1c[nH]c2ccccc12)C(C)C` [Peptide 2, D--Trp--Gln--Trp--Ala--Val--Gly--His--Leu-psi-Leu--NH2], the Kd came out at 10.6 nM and the IC50 was 12.2 nM. For the compound `CC(C)C[C@@H](CN[C@@H](CC(C)C)C(N)=O)NC(=O)[C@H](Cc1c[nH]cn1)NC(=O)CNC(=O)[C@@H](NC(=O)[C@H](C)NC(=O)[C@H](Cc1c[nH]c2ccccc12)NC(=O)[C@H](CCC(N)=O)NC(=O)[C@H]1Cc2c([nH]c3ccccc23)CN1)C(C)C` [Peptide 5, D--Tpi--Gln--Trp--Ala--Val--Gly--His--Leu-psi-Leu--NH2], the dissociation constant Kd stood at 8 nM and the IC50 is 9.2 nM. `CC(C)C[C@@H](CN[C@@H](CC(C)C)C(N)=O)NC(=O)[C@H](Cc1c[nH]cn1)NC(=O)CNC(=O)[C@@H](NC(=O)[C@H](C)NC(=O)[C@H](Cc1c[nH]c2ccccc12)NC(=O)[C@H](Cc1cn(Cc2ccccc2)cn1)NC(=O)[C@H]1Cc2c([nH]c3ccccc23)CN1)C(C)C` [Peptide 8, D--Tpi--His(Bz)--Trp--Ala--Val--Gly--His--Leu-psi-Leu--NH2] (H-[dTpi][His(τ-Bzl)]WAVGH-X2) gave a Ka of 0.014 nM⁻¹.

Take `CC(C)C[C@@H](CN[C@@H](Cc1ccccc1)C(N)=O)NC(=O)[C@H](Cc1c[nH]cn1)NC(=O)CNC(=O)[C@@H](NC(=O)[C@H](C)NC(=O)[C@H](Cc1c[nH]c2ccccc12)NC(=O)[C@H](CCC(N)=O)NC(=O)[C@H](N)Cc1c[nH]c2ccccc12)C(C)C` [Peptide 10, D--Trp--Gln--Trp--Ala--Val--Gly--His--Leu-psi-Phe--NH2]: the Kd was 1 nM and the IC50 is 1.15 nM. `CNC(=O)CC[C@H](NC(=O)[C@H](N)Cc1c[nH]c2ccccc12)C(=O)N[C@@H](Cc1c[nH]c2ccccc12)C(=O)N[C@@H](C)C(=O)N[C@H](C(=O)NCC(=O)N[C@@H](Cc1c[nH]cn1)C(=O)N[C@H](CN[C@@H](Cc1ccccc1)C(N)=O)CC(C)C)C(C)C` [Peptide 11, D--Trp--Glu(MeNH)--Trp--Ala--Val--Gly--His--Leu-psi-Phe--NH2]: binding was characterised by a dissociation constant (Kd) of 5 nM and the IC50 was 5.75 nM. The compound `CC(C)C[C@@H](CN[C@@H](Cc1ccccc1)C(N)=O)NC(=O)[C@H](Cc1c[nH]cn1)NC(=O)CNC(=O)[C@@H](NC(=O)[C@H](C)NC(=O)[C@H](Cc1c[nH]c2ccccc12)NC(=O)[C@H](CCC(N)=O)NC(=O)[C@H]1Cc2c([nH]c3ccccc23)CN1)C(C)C` [Peptide 12, D--Tpi--Gln--Trp--Ala--Val--Gly--His--Leu-psi-Phe--NH2] (HELM PEPTIDE1{[O=C([C@H]1Cc2c([nH]c3ccccc23)CN1)[*:2]].Q.W.A.V.G.H.[CC(C)C[C@@H](CN[C@@H](Cc1ccccc1)C(N)=O)N[*:1]]}$$$$V2.0) had a Ka of 0.014 nM⁻¹.

As for `CC(C)C[C@@H](CN1Cc2[nH]c3ccccc3c2C[C@H]1C(N)=O)NC(=O)[C@H](Cc1c[nH]cn1)NC(=O)CNC(=O)[C@@H](NC(=O)[C@H](C)NC(=O)[C@H](Cc1c[nH]c2ccccc12)NC(=O)[C@H](CCC(N)=O)NC(=O)[C@H](N)Cc1ccccc1)C(C)C` [Peptide 17, D--Phe--Gln--Trp--Ala--Val--Gly--His--Leu-psi-Tpi--NH2], the Kd turned out to be 1 nM and the IC50 is 1.2 nM. The matching figures for `CC(C)C[C@@H](CN1Cc2[nH]c3ccccc3c2C[C@H]1C(N)=O)NC(=O)[C@H](Cc1c[nH]cn1)NC(=O)CNC(=O)[C@@H](NC(=O)[C@H](C)NC(=O)[C@H](Cc1c[nH]c2ccccc12)NC(=O)[C@H](CCC(N)=O)NC(=O)[C@H](N)Cc1c[nH]c2ccccc12)C(C)C` [Peptide 18, D--Trp--Gln--Trp--Ala--Val--Gly--His--Leu-psi-Tpi--NH2]: 4 nM and 4.6 nM. The matching figures for `CC(C)C[C@@H](CN1Cc2[nH]c3ccccc3c2C[C@H]1C(N)=O)NC(=O)[C@H](Cc1c[nH]cn1)NC(=O)CNC(=O)[C@@H](NC(=O)[C@H](C)NC(=O)[C@H](Cc1c[nH]c2ccccc12)NC(=O)[C@H](CCC(N)=O)NC(=O)[C@@H]1Cc2c([nH]c3ccccc23)CN1)C(C)C` [Peptide 22, Tpi--Gln--Trp--Ala--Val--Gly--His--Leu-psi-Tpi--NH2]: 0.9 nM and 1.14 nM. `CC(C)C[C@@H](CN1Cc2[nH]c3ccccc3c2C[C@H]1C(N)=O)NC(=O)[C@H](Cc1c[nH]cn1)NC(=O)CNC(=O)[C@@H](NC(=O)[C@H](C)NC(=O)[C@H](Cc1c[nH]c2ccccc12)NC(=O)[C@H](CCC(N)=O)NC(=O)[C@H]1Cc2c([nH]c3ccccc23)CN1)C(C)C` [Peptide 26, D--Tpi--Gln--Trp--Ala--Val--Gly--His--Leu-psi-Tpi--NH2]: binding was characterised by a dissociation constant (Kd) of 22 nM and the IC50 was 25.3 nM.

As to `COc1ccc(CCC(=O)N[C@@H](CCC(N)=O)C(=O)N[C@@H](Cc2c[nH]c3ccccc23)C(=O)N[C@@H](C)C(=O)N[C@H](C(=O)NCC(=O)N[C@@H](Cc2c[nH]cn2)C(=O)N[C@H](CN[C@@H](Cc2c[nH]c3ccccc23)C(N)=O)CC(C)C)C(C)C)cc1` [Peptide 27, Mpp--Gln--Trp--Ala--Val--Gly--His--Leu-psi-Trp--NH2] (HELM PEPTIDE1{[COc1ccc(CCC(=O)[*:2])cc1].Q.W.A.V.G.H.[CC(C)C[C@@H](CN[C@@H](Cc1c[nH]c2ccccc12)C(N)=O)N[*:1]]}$$$$V2.0), the Ka turned out to be 0.013 nM⁻¹. `CC(C)C[C@@H](CN[C@@H](Cc1c[nH]c2ccccc12)C(N)=O)NC(=O)[C@H](Cc1c[nH]cn1)NC(=O)CNC(=O)[C@@H](NC(=O)[C@H](C)NC(=O)[C@H](Cc1c[nH]c2ccccc12)NC(=O)[C@H](CCC(N)=O)NC(=O)[C@H](N)Cc1ccccc1)C(C)C` [Peptide 28, D--Phe--Gln--Trp--Ala--Val--Gly--His--Leu-psi-Trp--NH2]: the Kd was found to be 8 nM and the IC50 is 9.16 nM. For `CC(C)C[C@@H](CN[C@@H](Cc1c[nH]c2ccccc12)C(N)=O)NC(=O)[C@H](Cc1c[nH]cn1)NC(=O)CNC(=O)[C@@H](NC(=O)[C@H](C)NC(=O)[C@H](Cc1c[nH]c2ccccc12)NC(=O)[C@H](CCC(N)=O)NC(=O)[C@H](N)Cc1c[nH]c2ccccc12)C(C)C` [Peptide 29, D--Trp--Gln--Trp--Ala--Val--Gly--His--Leu-psi-Trp--NH2], in that order: 526 nM and 605 nM. Take `CC(C)C[C@@H](CN[C@@H](Cc1c[nH]c2ccccc12)C(N)=O)NC(=O)[C@H](Cc1c[nH]cn1)NC(=O)CNC(=O)[C@@H](NC(=O)[C@H](C)NC(=O)[C@H](Cc1c[nH]c2ccccc12)NC(=O)[C@H](CCC(N)=O)NC(=O)[C@H]1Cc2c([nH]c3ccccc23)CN1)C(C)C` [Peptide 30, D--Tpi--Gln--Trp--Ala--Val--Gly--His--Leu-psi-Trp--NH2]: binding was put at a Kd of 4 nM and the IC50 is 5.15 nM.
